Laboratory results taken from patent US9526699B2, “Biodegradable and thermosensitive poly(organophosphazene) hydrogel, preparation method thereof and use thereof” (KIST, priority 2006, dated 2016).

How the values were obtained:
[1] = tested on: Cells of stomach cancer, SNU-601; test: In vivo anti-cancer activity of the poly(organophosphazene) hydrogel containing paclitaxel; parameters: species or system nude mouse; details: 60 mg/kg, day 10 after administration, ten mice per group
Protocol: A nude mouse (OrientalBio, Balb/C, female of 5-weeks old, 20 g) was used as an animal model for animal experimentation for an in vivo test. Cells of stomach cancer, SNU-601 (1×10^7 cells, 0.2 ml, Korean Cell Line Bank), were injected into the dorsum of the mouse. […] 0.2 ml of the solution was injected into the cancer cells, and the change in the size of the cells was measured.
Each test was conducted for ten (10) mice for each of the control groups and the experimental groups.

[2] = target: T1, albumin (Bovin Serum Albumin; BSA) (Bos taurus, UniProt P02769); test: Gel electrophoresis for ionic bond between additives and protein drug; assay type: binding; details: additive at various concentrations in 0.01% albumin solution
T1 construct: purchased Wako chemical
Protocol: Each of them was added to 0.01% albumin solution (Bovin Serum Albumin; BSA, Wako chemical) at various concentrations and sufficiently stirred. After holding for 20 minutes, an electrophoresis for each of the obtained solutions was conducted through polyacrylamide gel.

T1 sequence (P02769 25-607): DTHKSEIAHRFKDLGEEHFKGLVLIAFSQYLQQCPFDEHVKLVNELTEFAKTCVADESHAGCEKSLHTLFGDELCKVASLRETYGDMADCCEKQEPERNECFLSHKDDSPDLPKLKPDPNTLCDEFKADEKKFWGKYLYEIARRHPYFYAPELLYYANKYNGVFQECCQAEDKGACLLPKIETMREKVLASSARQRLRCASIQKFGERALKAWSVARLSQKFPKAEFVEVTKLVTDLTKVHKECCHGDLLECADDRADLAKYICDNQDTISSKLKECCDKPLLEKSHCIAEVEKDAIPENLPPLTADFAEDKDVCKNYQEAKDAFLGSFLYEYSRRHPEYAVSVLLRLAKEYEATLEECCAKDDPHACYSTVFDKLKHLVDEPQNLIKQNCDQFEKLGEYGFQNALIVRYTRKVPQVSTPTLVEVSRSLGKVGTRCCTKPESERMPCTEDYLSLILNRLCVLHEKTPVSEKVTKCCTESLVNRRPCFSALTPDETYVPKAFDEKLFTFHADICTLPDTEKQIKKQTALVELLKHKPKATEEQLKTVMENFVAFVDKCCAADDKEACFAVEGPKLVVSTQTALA

| Molecule | mice died due to toxicity [1] [mice] | development property in polyacrylamide gel (ionic bond with albumin) [2] |
| --- | --- | --- |
| CC(=O)O[C@H]1C(=O)[C@@]2(C)[C@H]([C@H](OC(=O)c3ccccc3)[C@]3(O)C[C@H](OC(=O)[C@H](O)[C@@H](NC(=O)c4ccccc4)c4ccccc4)C(C)=C1C3(C)C)[C@]1(OC(C)=O)CO[C@@H]1C[C@@H]2O [Paclitaxel, paclitaxel] | 8 |  |
| protamine |  | worse development property of the gel as the concentration of the additive is higher |
